According to patent US20230257372A1 (CHONG KUN DANG PHARMACEUTICAL CORP., priority 2020, published 2023):
pIC50: −log10 of the molar value.

Legend:
human recombinant HDAC6 = molecular target: T1, human recombinant HDAC6 (Homo sapiens, UniProt Q9UBN7); assay: HDAC6 enzyme activity inhibition (HDAC Fluorimetric Drug Discovery Kit); format: biochemical; conditions: for HDAC6 selectivity (fold): HDAC1 IC50 / HDAC6 IC50; for pIC50: human recombinant HDAC6, IC50 calculated with GraphPad Prism
T1 construct: purchased Calbiochem Inc. 382180
T1 sequence (Q9UBN7 1-1215): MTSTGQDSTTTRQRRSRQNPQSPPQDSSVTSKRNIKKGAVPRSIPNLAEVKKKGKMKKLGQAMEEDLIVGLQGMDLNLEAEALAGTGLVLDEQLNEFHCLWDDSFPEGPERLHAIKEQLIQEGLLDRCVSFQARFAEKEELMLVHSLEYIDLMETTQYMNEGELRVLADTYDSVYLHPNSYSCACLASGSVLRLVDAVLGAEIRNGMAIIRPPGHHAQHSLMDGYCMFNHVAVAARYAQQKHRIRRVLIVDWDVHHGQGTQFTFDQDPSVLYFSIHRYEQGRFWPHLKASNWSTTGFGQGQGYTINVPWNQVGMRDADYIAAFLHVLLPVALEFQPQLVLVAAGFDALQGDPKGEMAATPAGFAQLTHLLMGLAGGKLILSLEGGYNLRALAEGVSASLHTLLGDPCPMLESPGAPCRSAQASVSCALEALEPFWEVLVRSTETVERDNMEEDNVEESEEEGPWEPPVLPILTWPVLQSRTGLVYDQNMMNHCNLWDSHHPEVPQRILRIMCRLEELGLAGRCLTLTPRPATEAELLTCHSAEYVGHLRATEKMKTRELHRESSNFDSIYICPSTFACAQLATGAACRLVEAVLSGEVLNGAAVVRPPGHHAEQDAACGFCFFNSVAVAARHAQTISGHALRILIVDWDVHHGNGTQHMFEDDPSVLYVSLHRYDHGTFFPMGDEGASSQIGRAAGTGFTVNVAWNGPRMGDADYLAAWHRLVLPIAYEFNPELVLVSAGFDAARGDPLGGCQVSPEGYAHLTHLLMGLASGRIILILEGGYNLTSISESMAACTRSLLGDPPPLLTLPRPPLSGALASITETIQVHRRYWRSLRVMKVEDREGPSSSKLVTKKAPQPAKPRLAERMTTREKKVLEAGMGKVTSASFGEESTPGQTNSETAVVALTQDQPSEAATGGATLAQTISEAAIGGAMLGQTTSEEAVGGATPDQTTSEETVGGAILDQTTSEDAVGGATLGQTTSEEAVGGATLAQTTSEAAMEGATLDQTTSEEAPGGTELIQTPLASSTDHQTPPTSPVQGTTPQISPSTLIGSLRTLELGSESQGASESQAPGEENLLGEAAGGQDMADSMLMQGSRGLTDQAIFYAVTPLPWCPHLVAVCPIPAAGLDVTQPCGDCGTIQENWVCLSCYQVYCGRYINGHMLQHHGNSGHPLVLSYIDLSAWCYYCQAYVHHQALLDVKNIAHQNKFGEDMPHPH
How it was run: (§1)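 Five-fold compound dilutions incubated with […] recombinant enzyme and 10 μM fluorogenic Fluor de Lys substrate, 60 min at 30° C. Fluor de Lys Developer II then added for 30 min to generate the fluorescent read-out.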

human recombinant HDAC1 = molecular target: T2, human recombinant HDAC1 (Homo sapiens, UniProt Q13547); assay: HDAC1 enzyme activity inhibition (HDAC Fluorimetric Drug Discovery Kit); format: biochemical; conditions: human recombinant HDAC1; IC50 calculated with GraphPad Prism; read-out: HDAC1
T2 construct: purchased Enzo Life Science, Inc. BML-SE456
How it was run: as §1

T2 sequence (Q13547 whole entry): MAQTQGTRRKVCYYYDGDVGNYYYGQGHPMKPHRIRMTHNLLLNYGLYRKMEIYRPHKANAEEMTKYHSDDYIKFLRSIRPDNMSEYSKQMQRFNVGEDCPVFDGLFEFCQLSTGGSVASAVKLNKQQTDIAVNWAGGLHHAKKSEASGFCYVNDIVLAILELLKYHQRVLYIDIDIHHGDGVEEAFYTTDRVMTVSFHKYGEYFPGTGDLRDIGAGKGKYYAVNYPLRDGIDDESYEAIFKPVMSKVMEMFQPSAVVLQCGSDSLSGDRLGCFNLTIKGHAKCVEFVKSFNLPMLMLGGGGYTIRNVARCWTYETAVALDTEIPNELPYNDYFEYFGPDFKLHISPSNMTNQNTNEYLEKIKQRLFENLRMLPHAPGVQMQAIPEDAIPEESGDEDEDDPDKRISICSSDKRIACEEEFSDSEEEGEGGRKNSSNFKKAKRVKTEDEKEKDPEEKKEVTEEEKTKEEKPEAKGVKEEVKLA

Compound | HDAC6 selectivity (fold) (human recombinant HDAC6) | pIC50 (human recombinant HDAC6) | pIC50 (human recombinant HDAC1)
FC(F)c1nnc(-c2ccc(Cn3cc(-c4ccc(-n5cncn5)cc4)nn3)nc2)o1 [Compound 4285, 2-(6-((4-(4-(1H-1,2,4-triazol-1-yl)phenyl)-1H-1,2,3-triazol-1-yl)methyl)pyridin-3-yl)-5-(difluoromethyl)-1,3,4-oxadiazole] | 1577 | 7.50 | < 4.30
FC(F)c1nnc(-c2ccc(Cn3cc(-c4ccccc4-n4cncn4)nn3)nc2)o1 [Compound 4286, 2-(6-((4-(2-(1H-1,2,4-triazol-1-yl)phenyl)-1H-1,2,3-triazol-1-yl)methyl)pyridin-3-yl)-5-(difluoromethyl)-1,3,4-oxadiazole] | 154 | 6.49 | < 4.30
Cc1cc2ccc(-c3cn(Cc4ccc(-c5nnc(C(F)F)o5)cc4)nn3)cc2[nH]1 [Compound 4288] | 486 | 6.99 | < 4.30
CN1CCC(c2cccc(-c3cn(Cc4ccc(-c5nnc(C(F)F)o5)cc4F)nn3)c2)CC1 [Compound 4290, 2-(difluoromethyl)-5-(3-fluoro-4-((4-(3-(1-methylpiperidin-4-yl)phenyl)-1H-1,2,3-triazol-1-yl)methyl)phenyl)-1,3,4-oxadiazole] | 909 | 7.26 | < 4.30
CCN1CCC(c2cccc(-c3cn(Cc4ccc(-c5nnc(C(F)F)o5)cc4F)nn3)c2)CC1 [Compound 4291, 2-(difluoromethyl)-5-(4-((4-(3-(1-ethylpiperidin-4-yl)phenyl)-1H-1,2,3-triazol-1-yl)methyl)-3-fluorophenyl)-1,3,4-oxadiazole] | 1170 | 7.37 | < 4.30
CC(C)N1CCC(c2cccc(-c3cn(Cc4ccc(-c5nnc(C(F)F)o5)cc4F)nn3)c2)CC1 [Compound 4292, 2-(difluoromethyl)-5-(3-fluoro-4-((4-(3-(1-isopropylpiperidin-4-yl)phenyl)-1H-1,2,3-triazol-1-yl)methyl)phenyl)-1,3,4-oxadiazole] | 967 | 7.29 | < 4.30
Fc1cc(-c2nnc(C(F)F)o2)ccc1Cn1cc(-c2cccc(C3CCN(C4COC4)CC3)c2)nn1 [Compound 4293, 2-(difluoromethyl)-5-(3-fluoro-4-((4-(3-(1-(oxetan-3-yl)piperidin-4-yl)phenyl)-1H-1,2,3-triazol-1-yl)methyl)phenyl)-1,3,4-oxadiazole] | 618 | 7.09 | < 4.30
CCN1CC(N2CCC(c3cccc(-c4cn(Cc5ccc(-c6nnc(C(F)F)o6)cc5F)nn4)c3)CC2)C1 [Compound 4295, 2-(difluoromethyl)-5-(4-((4-(3-(1-(1-ethylazetidin-3-yl)piperidin-4-yl)phenyl)-1H-1,2,3-triazol-1-yl)methyl)-3-fluorophenyl)-1,3,4-oxadiazole] | 1106 | 7.34 | < 4.30

More lines, now with the values ahead:

HDAC6 selectivity (fold) (human recombinant HDAC6) | pIC50 (human recombinant HDAC6) | pIC50 (human recombinant HDAC1) | Compound
791 | 7.20 | < 4.30 | CN1CC(N2CCC(c3cccc(-c4cn(Cc5ccc(-c6nnc(C(F)F)o6)cc5F)nn4)c3)CC2)C1 [Compound 4294, 2-(difluoromethyl)-5-(3-fluoro-4-((4-(3-(1-(1-methylazetidin-3-yl)piperidin-4-yl)phenyl)-1H-1,2,3-triazol-1-yl)methyl)phenyl)-1,3,4-oxadiazole]
206 | 6.62 | < 4.30 | Fc1cc(-c2nnc(C(F)F)o2)ccc1Cn1cc(-c2cccc(N3C[C@@H]4C[C@H]3CN4)c2)nn1 [Compound 4316, 2-(4-((4-(3-((1S,4S)-2,5-diazabicyclo[2.2.1]heptan-2-yl)phenyl)-1H-1,2,3-triazol-1-yl)methyl)-3-fluorophenyl)-5-(difluoromethyl)-1,3,4-oxadiazole]
598 | 7.08 | < 4.30 | FC(F)c1nnc(-c2ccc(Cn3cc(-c4cccc(N5C[C@@H]6C[C@H]5CN6)c4)nn3)cc2)o1 [Compound 4317, 2-(4-((4-(3-((1S,4S)-2,5-diazabicyclo[2.2.1]heptan-2-yl)phenyl)-1H-1,2,3-triazol-1-yl)methyl)phenyl)-5-(difluoromethyl)-1,3,4-oxadiazole]
1373 | 7.44 | < 4.30 | CN1C[C@@H]2C[C@H]1CN2c1cccc(-c2cn(Cc3ccc(-c4nnc(C(F)F)o4)cc3F)nn2)c1 [Compound 4318, 2-(difluoromethyl)-5-(3-fluoro-4-((4-(3-((1S,4S)-5-methyl-2,5-diazabicyclo[2.2.1]heptan-2-yl)phenyl)-1H-1,2,3-triazol-1-yl)methyl)phenyl)-1,3,4-oxadiazole]
1470 | 7.47 | < 4.30 | Fc1cc(-c2nnc(C(F)F)o2)ccc1Cn1cc(-c2cccc(N3C[C@@H]4C[C@H]3CN4C3CCC3)c2)nn1 [Compound 4319, 2-(4-((4-(3-((1S, 4S)-5-cyclobutyl-2,5-diazabicyclo[2.2.1]heptan-2-yl)phenyl)-1H-1,2,3-triazol-1-yl)methyl)-3-fluorophenyl)-5-(difluoromethyl)-1,3,4-oxadiazole]
719 | 7.16 | < 4.30 | CN1C[C@@H]2C[C@H]1CN2c1cccc(-c2cn(Cc3ccc(-c4nnc(C(F)F)o4)cc3)nn2)c1 [Compound 4320, 2-(difluoromethyl)-5-(4-((4-(3-((1S,4S)-5-methyl-2,5-diazabicyclo[2.2.1]heptan-2-yl)phenyl)-1H-1,2,3-triazol-1-yl)methyl)phenyl)-1,3,4-oxadiazole]
434 | 6.95 | < 4.30 | CC(C)N1C[C@@H]2C[C@H]1CN2c1cccc(-c2cn(Cc3ccc(-c4nnc(C(F)F)o4)cc3)nn2)c1 [Compound 4321, 2-(difluoromethyl)-5-(4-((4-(3-((1S, 4S)-5-isopropyl-2,5-diazabicyclo[2.2.1]heptan-2-yl)phenyl)-1H-1,2,3-triazol-1-yl)methyl)phenyl)-1,3,4-oxadiazole]
531 | 7.03 | < 4.30 | FC(F)c1nnc(-c2ccc(Cn3cc(-c4cccc(N5C[C@@H]6C[C@H]5CN6C5CCC5)c4)nn3)cc2)o1 [Compound 4322]
310 | 6.79 | < 4.30 | CN(C)c1cccc(-c2cn(Cc3ccc(-c4nnc(C(F)F)o4)cc3)nn2)c1 [Compound 4323, 3-(1-(4-(5-(difluoromethyl)-1,3,4-oxadiazol-2-yl)benzyl)-1H-1,2,3-triazol-4-yl)-N,N-dimethylaniline]
170 | 6.53 | < 4.30 | FC(F)c1nnc(-c2ccc(Cn3cc(-c4cccc(NC5CCCCC5)c4)nn3)cc2)o1 [Compound 4324, N-cyclohexyl-3-(1-(4-(5-(difluoromethyl)-1,3,4-oxadiazol-2-yl)benzyl)-1H-1,2,3-triazol-4-yl)aniline]
830 | 7.22 | < 4.30 | FC(F)c1nnc(-c2ccc(Cn3cc(-c4cccc(NC5CCOCC5)c4)nn3)cc2)o1 [Compound 4325, N-(3-(1-(4-(5-(difluoromethyl)-1,3,4-oxadiazol-2-yl)benzyl)-1H-1,2,3-triazol-4-yl)phenyl)tetrahydro-2H-pyran-4-amine]
889 | 7.25 | < 4.30 | FC(F)c1nnc(-c2ccc(Cn3cc(-c4cccc(NC5COC5)c4)nn3)cc2)o1 [Compound 4326, N-(3-(1-(4-(5-(difluoromethyl)-1,3,4-oxadiazol-2-yl)benzyl)-1H-1,2,3-triazol-4-yl)phenyl)oxetan-3-amine]
